Columns and labels:
MDA-MB-231 TNBC cells = assay: Cell proliferation / growth assay; type: cell-based, human; settings: forced expression of β-catenin-S33Y or β-catenin N90; 72 hr
[1] = in vivo; cited from earlier work

In the case of `Fc1cccc(-n2cnc3c(NCc4nc5ccc(F)c(F)c5[nH]4)nc(N4CCOCC4)nc32)c1` [SR-3029], the “growth inhibitory and apoptotic effects with constitutively active β-catenin” value (MDA-MB-231 TNBC cells) is listed as “sufficient to rescue the growth inhibitory and apoptotic effects” and the pharmacokinetic properties [1] is listed as “amenable for in vivo studies”.
